Reference: patent US20250268748A1, “TREATMENT OF SPINAL MUSCULAR ATROPHY BY INDUCING HEAT SHOCK RESPONSE” (THE RESEARCH INSTITUTE AT NATIONWIDE CHILDREN'S HOSPITAL, priority 2016, published 2025)

Tests used:
[1] = test system: SMN2 exon 7 inclusion in differentiated SH-SY5Y cells; test: Oxidative stress treatment, RT-PCR of SMN2 splicing; type: cell-based; details: 20 μM for 24 hours (oxidative stress)
Protocol: FIGS. 2A-2C provide graphs and images showing that heat shock increases the functional splicing product of SMN2 in a dose and time-dependent manner. A. Neuroblastoma cell line, SHSY-5Y, were differentiated for 7-9 days in 5 μM retinoic acid and then treated with various stresses to characterize the level of SMN2 as a stress-responsive gene. RNA splicing levels of SMN1 and 2 were observed by performing RTPCR analysis on total mRNA harvested from cell lysates. […] B. To test the cell-type specificity of the heat shock effect on SMN splicing, we performed a heat shock treatment on several cell lines. All treatments were performed with 24 hours of 41° C. and compared with NT (37° C.) quantitation is shown (n-3). This treatment was performed in Differentiated SHSY-5Y cells, SMA patient fibroblasts (GM03813), SMA carrier fibroblasts (GM03814), and a breast cancer cell line (MCF-7) cells. Heat treatment induces a significant change in splicing in all cell lines tested. C. To test the duration of heat treatment necessary for heat shock induced splicing correction a time course was performed. Differentiated SHSY-5Y cells were treated with 41° C. for 1, 4, 8, and 24 hour time intervals. D. To test the quantity of heat required to elicit splicing correction, a heat treatment dose response was performed. Differentiated SHSY-5Y cells were treated with temperatures from 37° to 41° C. for 8 hours. […]

[2] = test system: SMN2 full length splicing in MCF-7 cells; test: 17-DMAG HSP90 inhibition, RT-PCR of SMN exon 7 splicing with or without heat shock; type: cell-based; details: for SMN2 full length splicing: 8 hours
Protocol: FIG. 7 provide an image and a graph showing that HSP90 inhibition prevents heat-induced SMN splicing correction. HSP90 inhibition was performed with 17-DMAG in MCF-7 cells. Dose responses were analyzed at 0, 10, 20, 40 nM 17-DMAG for 8 hours, with or without 41° C. heat treatment. Total RN A was harvested and RT-PCR amplification of SMN transcripts was used to observe splicing levels of exon 7. Significance levels are: * p-value<0.05, **p-value <0.01.
To validate the role of HSP90 in the SMN2 splicing under heat shock, the HSP90 ATPase inhibitor, 17-DMAG was administered to MCF-7 cells. 17-DMAG was administered at 0, 10 nM, 20 nM, and 40 nM concentrations the same time as the heat shock treatment, for the duration of 8 hours. Experiments were performed in parallel at 37° C. and 41° C. […] (FIG. 7). […] Full length SMN2 is quantitated for all samples and three trials are graphed, showing significant alterations in SMN splicing.
17-DMAG (17-Dimethylaminoethylamino-17-demethoxygeldanamycin) was purchased from Cayman Chemicals and resuspended in DMSO to a 20 mM stock. Then treatments were administered to cultured cells at a density of 75% in 6 well plates.
Cells grown under normal conditions (37° C.) were grown in a 5% C02, humidified incubator. Cells grown under heat shock conditions (38°-41° C.) were cultured at 5% C02, humidified incubators set to respective temperatures and monitored for temperature fluctuations with calibrated digital thermometer. Cells were maintained at their temperature treatment for the duration of the time point and harvested for RNA or protein directly following treatment.
Total RNA was isolated from samples using RNeasy kits (Qiagen). cDNA was created from RNA with Roche Transcriptor Reverse Transcriptase. cDNA was created from 1.5 ug of total RNA using random hexamers (Roche). PCR was performed with Sigma Taq Polymerase to detect exon 7 splicing of SMN1 and SMN2 transcripts. Primers were designed to flank exon 7 to visualize both full length and exon-skipped products: forward primer in exon 6 and reverse primer in exon 8. PCR cycles were performed with the following conditions: annealing temperature 62° C., 30 sec; 72° C. extension, 1 min; for 35 cycles. Importantly, there exists a unique digestion site (Ddel) within this PCR amplicon in exon 8 of SMN2. Therefore, to distinguish between SMN1 and SMN2transcripts, PCR products were digested with the enzyme Ddel. Subsequent digested PCR products were then resolved on 2.5% agarose gels (product sizes: SMN1 full-length: 507 bp, SMN1A7: 453 bp, SMN2 full-length: 392 bp, SMN2M: 338 bp). Splicing ratios were determined by densitometry (ImageQuant software, GE Healthcare Life Sciences) and statistical analysis (two tailed t test) performed using Graphpad Prism software.

OO [HO2]
SMN2 exon 7 inclusion [1]: mild decreases in exon 7 inclusion

CO[C@H]1/C=C\C=C(/C)C(=O)NC2=CC(=O)C(NCCN(C)C)=C(C[C@@H](C)C[C@H](OC)[C@H](O)[C@@H](C)/C=C(\C)[C@@H]1OC(N)=O)C2=O [17-DMAG, 17-Dimethylaminoethylamino-17-demethoxygeldanamycin]
SMN2 full length splicing ([2]; 10 nM, 37° C.): significant decrease | SMN2 full length splicing ([2]; 10 nM, 41° C.): significantly decreased the full length splicing to even below baseline splicing at 37 °C | SMN2 full length splicing ([2]; 20 nM, 37° C.): began to approach basal splicing levels | SMN2 full length splicing ([2]; 20 nM, 41° C.): significantly decreased the full length splicing to even below baseline splicing at 37 °C | SMN2 full length splicing ([2]; 40 nM, 37° C.): began to approach basal splicing levels | SMN2 full length splicing ([2]; 40 nM, 41° C.): significantly decreased the full length splicing to even below baseline splicing at 37 °C | heat shock-induced full length SMN2 splicing (summary statement) ([2]; heat shock): prevents
